In US20200163984A1, “USE OF ISOVALERYL SPIRAMYCIN I, II AND/OR III IN MANUFACTURING MEDICAMENT FOR TREATING AND/OR PREVENTING TUMOR, AND MEDICAMENT” (SHENYANG FUYANG PHARMACEUTICAL TECHNOLOGY CO., LTD., priority 2017, published 2020):
Each block holds one compound with its values, some of them ahead of it.

Key:
[1] = test system: transplanted tumor of human renal cell adenocarcinoma cell 769-P; experiment: 769-P transplanted tumor in nude mice
Description: Then cell concentration was adjusted to 1×10^7/ml with matrigel, then each nude mouse was inoculated subcutaneously with 0.2 ml of cells at its right armpit and recorded as the first day of inoculation. When the tumor grows to be greater than or equal to 100 mm^3, the mice were randomly divided into 11 groups with 6 mice in each group: a model group, a cyclophosphamide group, isovaleryl spiramycin I groups with doses of 25, 50 and 100 mg/kg, isovaleryl spiramycin II groups with doses of 25, 50 and 100 mg/kg, and isovaleryl spiramycin III groups with doses of 25, 50 and 100 mg/kg. Each group was continuously administered intragastrically for 30 days with a dose of 20 ml/kg. The mice were sacrificed the next day after drug withdrawal and the indicators were tested. The long diameter and short diameter of the tumor, and the weight of each mouse were recorded every 3 days from drug administration to nude mouse sacrifice.
The body weight of the nude mice and the long diameter (a) and short diameter (b) of the transplanted tumor were measured every 3 days, and the tumor volume (v), relative tumor volume (RTV) and relative tumor proliferation rate (T/C) are calculated respectively according to the following formulas, wherein V=a×b^2/2; RTV=V/V0 (V0 is the tumor volume before administration, V is the tumor volume before sacrifice), and T/C (%)=treatment group RTV/model control group RTV×100%.
Each mouse was weighed and sacrificed. After the tumor was completely stripped off from the body of the mouse, the non-tumor tissues such as blood stains and fat were removed to weigh the tumor and calculate the tumor growth inhibition rate. The average tumor weight of each group of mice is used as an indicator of efficacy. Tumor growth inhibition rate (%)=(1−the average tumor weight of the treatment group/the average tumor weight of the model group)×100%.

[2] = test system: NK cell activity of spleen cells against K562 cells; experiment: Natural killer (NK) cell activity of Lewis lung cancer tumor-bearing mice; format: in vivo, C57BL/6 mouse
Description: In the Lewis lung cancer model, the mice inoculated with the tumor were randomly divided into groups with 10 mice in each group the next day of inoculation. The groups included: a model control group, a positive drug cyclophosphamide control group (CTX, 30 mg/kg), isovaleryl spiramycin I groups with doses of 13, 26 and 52 mg/kg; isovaleryl spiramycin II groups with doses of 13, 26 and 52 mg/kg; isovaleryl spiramycin III groups with doses of 13, 26 and 52 mg/kg. Each group was continuously administered intragastrically for 15 days with a dose of 20 ml/kg.
The serum-free RPMI 1640 medium was placed in a dish, and then the dish was placed on ice. The spleen was aseptically taken and gently ground with a sterile glass slide to prepare a single cell suspension. The single cell suspension was filtered with a double-layer sterile gauze, washed twice with serum-free RPMI1640 medium, and centrifuged at 1,500 rpm for 5 min to remove the obtained supernatant. 2 mL of red blood cell lysate was added to the treated suspension, the mixture was allowed to stand for 2 min, and then 8 mL of RPMI 1640 medium was added, centrifuging was performed at 1,500 rpm for 5 min to remove the obtained supernatant, and then washing was performed twice with the RPMI 1640 medium. […] A single cell suspension was prepared by using a RPMI 1640 medium containing 10% fetal bovine serum.
The spleen cell suspension was taken, and the cell density was adjusted to 1×10^7/mL (effector cells). A suspension of K562 cells was prepared with a cell density of 1×10^5/mL (target cells). Each mouse was set with: A. effector cells:target cell well (quantity ratio 20:1) to which […] of spleen cell suspension and 100 μL of K562 cell suspension were added; B. an effector cell control well to which 100 μL of spleen cell suspension and 100 μL of RPMI 1640 medium were added; and C. a target cell control well to which 100 μL of K562 cell suspension and 100 μL of RPMI 1640 medium were added. The above cells were added to a 96-well plate. After the 96-well plate was transferred to a saturated humidity condition with a volume fraction of 5% CO2 at 37° C. for incubation for 22 h, 10 μL of MTT solution (5 g/L) was added to each well, and incubation was continued to be performed for 4 hours under the same conditions, then the culture was terminated. 100 μl of a triple solution (SDS 10 g, 10M HCl 0.1 mL, isobutanol 5 mL, diluted with distilled water to 100 mL) was added, and the plate was shaken for 10 min to fully dissolve the crystals, and the Optical Density (OD) of each well at 490 nm was measured, and the NK cell activity was calculated. NK cell activity (%)=[TO−(S−E)]/TO×100%, wherein TO is the Optical Density of the target cell control well, S is the Optical Density of the effector cell control well, and E is the Optical Density of the effector cell.

[3] = 769-P, high dose (100 mg/kg in method) i.g. 30 days
[4] = 769-P, low dose (25 mg/kg in method) i.g. 30 days
[5] = 769-P, medium dose (50 mg/kg in method) i.g. 30 days

mouse weight compared with the model group ([1]; mouse, in vivo): no significant changes
SMILES: CCC(=O)O[C@@H]1CC(=O)O[C@H](C)C/C=C/C=C/[C@H](O[C@H]2CC[C@H](N(C)C)[C@@H](C)O2)[C@H](C)C[C@H](CC=O)[C@H](O[C@@H]2O[C@H](C)[C@@H](O[C@H]3C[C@@](C)(O)[C@@H](OC(=O)CC(C)C)[C@H](C)O3)[C@H](N(C)C)[C@H]2O)[C@H]1OC [Isovaleryl spiramycin III, isovaleryl spiramycin III]
Inhibition Rate (%) ([1]; 769-P nude mice, 25 mg/kg): 40.87% | Relative Tumor Proliferation Rate (T/C) ([1]; 769-P nude mice, 25 mg/kg): 61.59% | Relative Tumor Volume (RTV) ([1]; 769-P nude mice, 25 mg/kg): 11.37 ± 1.469 | Tumor Weight ([1]; 769-P nude mice, 25 mg/kg): 1.22 ± 0.46 g | Tumor Volume (mm3) (d 1) ([1]; 769-P nude mice, 25 mg/kg, d1): 146.32 ± 43.02 mm3 | Tumor Volume (mm3) (d30) ([1]; 769-P nude mice, 25 mg/kg, d30): 1663.32 ± 445.50 mm3 | Inhibition Rate (%) ([1]; 769-P nude mice, 50 mg/kg): 60.50% | Relative Tumor Proliferation Rate (T/C) ([1]; 769-P nude mice, 50 mg/kg): 51.59% | Relative Tumor Volume (RTV) ([1]; 769-P nude mice, 50 mg/kg): 9.52 ± 1.67 | Tumor Weight ([1]; 769-P nude mice, 50 mg/kg): 0.82 ± 0.06 g | Tumor Volume (mm3) (d 1) ([1]; 769-P nude mice, 50 mg/kg, d1): 180.43 ± 51.70 mm3 | Tumor Volume (mm3) (d30) ([1]; 769-P nude mice, 50 mg/kg, d30): 1717.76 ± 524.33 mm3 | Inhibition Rate (%) ([1]; 769-P nude mice, 100 mg/kg): 64.46% | Relative Tumor Proliferation Rate (T/C) ([1]; 769-P nude mice, 100 mg/kg): 36.55% | Relative Tumor Volume (RTV) ([1]; 769-P nude mice, 100 mg/kg): 6.56 ± 0.28 | Tumor Weight ([1]; 769-P nude mice, 100 mg/kg): 0.73 ± 0.08 g | Tumor Volume (mm3) (d 1) ([1]; 769-P nude mice, 100 mg/kg, d1): 104.38 ± 12.92 mm3 | Tumor Volume (mm3) (d30) ([1]; 769-P nude mice, 100 mg/kg, d30): 684.88 ± 62.28 mm3 | Relative Tumor Proliferation Rate (T/C) [1, 3]: 35.55% | tumor growth inhibition rate [1, 3]: 64.46% | Relative Tumor Proliferation Rate (T/C) [1, 4]: 61.59% | tumor growth inhibition rate [1, 4]: 40.87% | tumor volume and relative tumor volume compared with the model group ([1]; 769-P, low, medium and high doses, P<0.05): significantly lower | Relative Tumor Proliferation Rate (T/C) [1, 5]: 51.59% | tumor growth inhibition rate [1, 5]: 60.50% | Body Weight (g) (d1) ([1]; mouse, in vivo, 25 mg/kg): 23.09 ± 1.90 g | Body Weight (g) (d30) ([1]; mouse, in vivo, 25 mg/kg): 22.72 ± 0.78 g | Body Weight (g) (d1) ([1]; mouse, in vivo, 50 mg/kg): 22.90 ± 1.00 g | Body Weight (g) (d30) ([1]; mouse, in vivo, 50 mg/kg): 21.43 ± 1.08 g | Body Weight (g) (d1) ([1]; mouse, in vivo, 100 mg/kg): 20.49 ± 1.14 g | Body Weight (g) (d30) ([1]; mouse, in vivo, 100 mg/kg): 22.28 ± 1.72 g | NK Cell Activity ([2]; 13 mg/kg): 48.9 ± 6.6% | NK Cell Activity ([2]; 26 mg/kg): 46.0 ± 11.8% | NK Cell Activity ([2]; 52 mg/kg): 49.8 ± 6.2% | NK cell activity compared with the control group ([2]; 13, 26 and 52 mg/kg, P<0.01): significantly increase

SMILES: O=P1(N(CCCl)CCCl)NCCCO1 (stereo not shown) [Cyclophosphamide, cyclophosphamide, reference compound]
Inhibition Rate (%) ([1]; 769-P nude mice, 30 mg/kg): 70.52% | Relative Tumor Proliferation Rate (T/C) ([1]; 769-P nude mice, 30 mg/kg): 35.34% | Relative Tumor Volume (RTV) ([1]; 769-P nude mice, 30 mg/kg): 6.52 ± 0.90 | Tumor Weight ([1]; 769-P nude mice, 30 mg/kg): 0.6 ± 0.03 g | Body Weight (g) (d1) ([1]; 769-P nude mice, 30 mg/kg, d1): 21.61 ± 1.00 g | Tumor Volume (mm3) (d 1) ([1]; 769-P nude mice, 30 mg/kg, d1): 107.92 ± 15.94 mm3 | Body Weight (g) (d30) ([1]; 769-P nude mice, 30 mg/kg, d30): 21.58 ± 0.81 g | Tumor Volume (mm3) (d30) ([1]; 769-P nude mice, 30 mg/kg, d30): 704.00 ± 45.50 mm3 | NK Cell Activity ([2]; 26 mg/kg): 35.4 ± 6.6 % | NK cell activity compared with the control group ([2]; cyclophosphamide, P<0.05): significantly lower
